The record followed here is ChEMBL document CHEMBL1122029, “N2-(gamma-D-Glutamyl)-meso-2(L),2'(D)-diaminopimelic acid as the minimal prerequisite structure of FK-156: its acyl derivatives with potent immunostimulating activity” (1982).

Assay [1] relates to Mus musculus. In words: Antiinfectious effect against Escherichia coli 22 in ICR mice(10) at the dose of 0.1 mg/kg (i.p.) expressed as number of survivals. Type of assay: functional. The following applies: route intraperitoneal.
The nature of assay [2]: Phagocytic activity was assessed in a carbon clearance assay and stimulation index was reported in male DDY mice at the dose of 0.1 mg/kg; Kt/Kc. It counts as functional.
For assay [3], the species on record is Cavia porcellus. In words: Ability to induce delayed-type hypersensitivity to egg albumin in Hartley guinea pigs at the dose of 1 ug/site. Type of assay: functional.
A short description of assay [4]: Phagocytic activity was assessed in a carbon clearance assay and stimulation index was reported in male DDY mice at the dose of 1 mg/kg; Kt/Kc. It counts as functional.
The test system of assay [5] is Mus musculus. In words: Phagocytic activity was assessed in a carbon clearance assay in male DDY mice at the dose of 1 mg/kg. It counts as functional, organism-based. The arrangement: dose 1 mg/kg.
For assay [6], the species on record is Cavia porcellus. In words: Ability to induce delayed-type hypersensitivity to egg albumin in Hartley guinea pigs at the dose of 10 ug/site. It counts as functional. The arrangement: unit not given beside the values.
Assay [7] deals with Mus musculus. Kind of assay: Phagocytic activity was assessed in a carbon clearance assay in male DDY mice at the dose of 0.1 mg/kg. It counts as functional, organism-based. The arrangement: dose 0.1 mg/kg.
Assay [8] relates to Mus musculus. Kind of assay: Antiinfectious effect against Escherichia coli 22 in ICR mice(10) at the dose of 1 mg/kg (i.p.) expressed as number of survivals. It counts as functional. The following applies: route intraperitoneal.
Assay [9] concerns Mus musculus. Kind of assay: Phagocytic activity was assessed in a carbon clearance assay in male DDY mice at the dose of 10 mg/kg. Type of assay: functional, organism-based. The arrangement: dose 10 mg/kg.
Assay [10] can be described thus: Phagocytic activity was assessed in a carbon clearance assay and stimulation index was reported in male DDY mice at the dose of 10 mg/kg; Kt/Kc. It counts as functional.
Assay [11] deals with Mus musculus. In words: Antiinfectious effect against Escherichia coli 22 in ICR mice(10) at the dose of 1 mg/kg (i.p.) expressed as survivals. Type of assay: functional. The conditions noted are these: route intraperitoneal.
The species named for assay [12] is Mus musculus. In words: Tumor suppressive activity against meth-A fibrosarcoma in BALB/c mice (10) at the dose of 100 ug/site. Type of assay: functional.
Assay [13] is filed under the species Mus musculus. Kind of assay: Tumor suppressive activity against meth-A fibrosarcoma in BALB/c mice(9) at the dose of 100 ug/site. It counts as functional.

As for `CCCCCCCC(=O)NC(CCC(=O)NC(CCCC(N)C(=O)O)C(=O)O)C(=O)O` (centres undefined), the Survival with Mus musculus [1] was 7; in the assay on Mus musculus [8], 6. The Ratio is 1.6 in [2] and 2.4 in [4]. Moreover, the Skin response stood at 8.3 in the assay listed under Cavia porcellus [3] and 3.7 in the assay listed under Cavia porcellus [6]. For the same molecule, the K came to 0.048 with Mus musculus [5] and 0.032 with Mus musculus [7].
Take `NC(CCCC(NC(=O)CCC(N)C(=O)O)C(=O)O)C(=O)O` (centres undefined): the K in the assay on Mus musculus [9] turned out to be 0.058; in the assay with Mus musculus [5], 0.021. The Survival in the assay with Mus musculus [1] and with Mus musculus [11] was 4 throughout. Also, the Ratio in assay [10] amounted to 2.9; in [4] it was 1.1. Also, the values for the Skin response in the assay filed under Cavia porcellus [3] and in the assay listed under Cavia porcellus [6] were 3.3 and 6.9, respectively.
In the assay filed under Mus musculus [12], `CC(O)C(=O)NC(C)C(=O)NC(CCC(=O)NC(CCCC(N)C(=O)O)C(=O)NCC(=O)O)C(=O)O` (centres undefined) yielded a Suppression of 0. For the same molecule, the Survival with Mus musculus [1] amounted to 6; in the assay with Mus musculus [8], 7. In addition, the figures for the Ratio in [2] and in assay [4] were 1.5 and 1.9, respectively. Also, the Skin response in the assay filed under Cavia porcellus [3] was determined as 8.2; in the assay filed under Cavia porcellus [6], 10. Also, the K amounted to 0.038 in the assay with Mus musculus [5] and 0.029 with Mus musculus [7].
For `CCCCCCCCCCCCCCCCCC(=O)NC(CCC(=O)NC(CCCC(N)C(=O)O)C(=O)O)C(=O)O` (centres undefined), the figures for the Survival in the assay on Mus musculus [1] and with Mus musculus [8] were 7 and 8, respectively. Besides, in the assay filed under Mus musculus [13], the Suppression was found to be 9. The results for the Ratio in assay [2] and in assay [4] were 1.6 and 2.4, respectively. For the same molecule, the Skin response in the assay filed under Cavia porcellus [3] is 1.7; in the assay filed under Cavia porcellus [6], less than 3.1. Moreover, the K in the assay on Mus musculus [5] was less than 0.048; in the assay on Mus musculus [7] it was 0.032.
